Assay [1] addresses T1, Prostaglandin G/H synthase 2 (Homo sapiens, UniProt P35354).
T1 sequence (P35354 whole entry): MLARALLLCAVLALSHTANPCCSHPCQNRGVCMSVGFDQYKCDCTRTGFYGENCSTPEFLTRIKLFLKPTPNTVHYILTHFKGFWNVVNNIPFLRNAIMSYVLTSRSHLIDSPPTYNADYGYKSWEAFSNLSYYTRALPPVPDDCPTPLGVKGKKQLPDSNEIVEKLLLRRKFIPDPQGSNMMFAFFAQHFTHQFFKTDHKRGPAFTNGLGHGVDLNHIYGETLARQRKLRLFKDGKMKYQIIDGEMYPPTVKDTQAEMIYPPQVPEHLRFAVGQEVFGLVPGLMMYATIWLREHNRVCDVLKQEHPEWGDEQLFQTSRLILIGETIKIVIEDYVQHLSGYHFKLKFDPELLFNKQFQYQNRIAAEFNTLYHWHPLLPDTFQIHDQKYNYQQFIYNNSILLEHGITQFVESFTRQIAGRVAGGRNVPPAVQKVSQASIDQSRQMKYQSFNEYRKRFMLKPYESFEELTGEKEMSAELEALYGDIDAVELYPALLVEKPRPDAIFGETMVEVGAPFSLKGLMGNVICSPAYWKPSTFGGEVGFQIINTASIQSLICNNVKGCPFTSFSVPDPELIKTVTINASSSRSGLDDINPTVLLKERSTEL
Put plainly: In vitro inhibitory activity against Prostaglandin G/H synthase 2 (COX-2) in human.

The species named for a further assay is Ovis aries. Description: Selectivity ratio of COX-1 to that of COX-2.
Assay [2] deals with T2, Prostaglandin G/H synthase 1 (Ovis aries, UniProt P05979).
T2 sequence (P05979 whole entry): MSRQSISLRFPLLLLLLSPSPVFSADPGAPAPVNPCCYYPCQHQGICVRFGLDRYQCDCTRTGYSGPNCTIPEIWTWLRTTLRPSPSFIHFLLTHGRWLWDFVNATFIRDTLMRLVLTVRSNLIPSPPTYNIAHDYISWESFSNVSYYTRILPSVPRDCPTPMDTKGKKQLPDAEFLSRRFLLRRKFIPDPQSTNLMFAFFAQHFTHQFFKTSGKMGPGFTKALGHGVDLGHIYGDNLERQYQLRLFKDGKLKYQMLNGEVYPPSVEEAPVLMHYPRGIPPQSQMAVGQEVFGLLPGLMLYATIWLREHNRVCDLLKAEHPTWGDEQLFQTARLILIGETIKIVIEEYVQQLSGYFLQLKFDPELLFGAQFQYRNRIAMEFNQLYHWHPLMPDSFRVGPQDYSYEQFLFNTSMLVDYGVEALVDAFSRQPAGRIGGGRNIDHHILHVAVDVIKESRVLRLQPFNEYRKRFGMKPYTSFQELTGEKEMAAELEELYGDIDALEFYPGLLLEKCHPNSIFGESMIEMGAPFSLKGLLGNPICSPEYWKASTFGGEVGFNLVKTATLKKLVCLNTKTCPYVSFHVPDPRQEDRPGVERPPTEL
Description: In vitro inhibitory activity against Prostaglandin G/H synthase 1 in sheep.

The structures appear in SMILES notation.

The IC50 is the point on the concentration scale where inhibition reaches its midpoint.

In the case of `CC(C)c1cccc(-c2ccc(C(C)C(=O)O)cc2F)c1` (stereo not drawn), the IC50 in assay [1] is more than 100000 nM; in assay [2], 15 µM. Further, the Selectivity in the assay listed under Ovis aries was less than 0.15.

Turning to `CCOc1cccc(-c2ccc(C(C)C(=O)O)cc2F)c1` (stereo not drawn), the values for the IC50 in assay [1] and in assay [2] were 14 nM and 0.014 µM, respectively. In addition, the Selectivity in the assay listed under Ovis aries worked out at 1.

In the case of `C=Cc1cccc(-c2ccc(C(C)C(=O)O)cc2)c1` (stereo not drawn), the results for the IC50 in assay [1] and in assay [2] were 730 nM and 1.3 µM, respectively. Besides, the Selectivity in the assay listed under Ovis aries is 1.8.

For the compound `C/C=C/c1cncc(-c2ccc(C(C)C(=O)O)cc2)c1` (stereo not drawn), the IC50 in assay [1] came out at 670 nM; in assay [2], 15.5 µM. Further, the Selectivity in the assay listed under Ovis aries stood at 23.

Regarding `CCSc1cccc(-c2ccc(C(C)C(=O)O)cc2)c1` (stereo not drawn), the figures for the IC50 in assay [1] and in assay [2] were 330 nM and 3.1 µM, respectively. For the same compound, in the assay filed under Ovis aries, the Selectivity is 9.4.

Turning to `CC(C(=O)O)c1ccc(-c2ccc3[nH]ccc3c2)cc1` (stereo not drawn), the IC50 in assay [1] turned out to be 190 nM; in assay [2], 0.1 µM. Besides, in the assay filed under Ovis aries, the Selectivity came to 0.53.

On to `CC(C(=O)O)c1ccc(-c2ccccc2)cc1` (stereo not drawn), for which half-maximal inhibition in assay [1] (IC50) required 21 nM.

On to `C=CCc1cccc(-c2ccc(C(C)C(=O)O)cc2)c1` (stereo not drawn), for which the IC50 in assay [1] was determined as 150 nM; in assay [2] it was 1.4 µM. In addition, in the assay listed under Ovis aries, the Selectivity was 9.3.

With `CCOc1cc(OCC)cc(-c2ccc(C(C)C(=O)O)cc2F)c1` (stereo not drawn), the IC50 came to 100 nM in assay [1] and 7.7 µM in assay [2]. Besides, the Selectivity in the assay listed under Ovis aries was determined as 77.

As to `Cc1cc(C)cc(-c2ccc(C(C)C(=O)O)cc2F)c1` (stereo not drawn), the half-maximal inhibitory concentration (IC50) in assay [1] was found to be 19000 nM; in assay [2], 15 µM. The Selectivity in the assay filed under Ovis aries was 0.79.

Regarding `CCc1cccc(-c2ccc(C(C)C(=O)O)cc2)c1` (stereo not drawn), the IC50 in assay [1] is 2400 nM; in assay [2], 5.8 µM. Also, the Selectivity in the assay filed under Ovis aries was determined as 2.4.

For the compound `COc1cc(OC)cc(-c2ccc(C(C)C(=O)O)cc2F)c1` (stereo not drawn), the results for the IC50 in assay [1] and in assay [2] were 70 nM and 0.063 µM, respectively. Moreover, the Selectivity in the assay listed under Ovis aries came out at 0.9.

Take `CCOc1cc(OCC)cc(-c2ccc(C(C)C(=O)O)cc2)c1` (stereo not drawn): the IC50 came out at 320 nM in assay [1] and 25 µM in assay [2]. Also, in the assay filed under Ovis aries, the Selectivity came out at 78.

For `Cc1cc2cc(-c3ccc(C(C)C(=O)O)cc3)ccc2[nH]1` (stereo not drawn), the IC50 in assay [1] stood at 230 nM; in assay [2], 10.5 µM. Moreover, the Selectivity in the assay filed under Ovis aries was 45.

As to `C=Cc1cncc(-c2ccc(C(C)C(=O)O)cc2)c1` (stereo not drawn), the IC50 in assay [1] was found to be 190 nM; in assay [2] it was 0.19 µM. In addition, in the assay filed under Ovis aries, the Selectivity amounted to 1.
